Source: patent US12312324B2, “Fluorine-containing substituted benzothiophene compound, and pharmaceutical composition and application thereof” (Shanghai Institute of Materia Medica, Chinese Academy of …, priority 2019, dated 2025)
Entries after “also recorded” stand apart in the source; their conditions may differ.

What was measured:
[1] = Pharmacokinetic properties in rats; type: in vivo
[2] = biological target: human-derived interferon gene stimulating protein (Homo sapiens, UniProt Q86WV6, G230A/H232R/R293Q/R71H); assay: THP1-Blue-ISG reporter cell screening for activation of interferon gene stimulating protein and promotion of IFN-β expression; conditions: 10 μM, THP1-Blue-ISG cells; for Fold change (ratio relative to the control experiment), First experiment / Fold change (ratio relative to the control experiment), Second experiment / Fold change (ratio relative to the control experiment), Average value: 24 hours, OD650; for Fold change (ratio relative to the control experiment), Average value: average of two experiments
Chain of human-derived interferon gene stimulating protein (Q86WV6 whole entry R71H/G230A/H232R/R293Q): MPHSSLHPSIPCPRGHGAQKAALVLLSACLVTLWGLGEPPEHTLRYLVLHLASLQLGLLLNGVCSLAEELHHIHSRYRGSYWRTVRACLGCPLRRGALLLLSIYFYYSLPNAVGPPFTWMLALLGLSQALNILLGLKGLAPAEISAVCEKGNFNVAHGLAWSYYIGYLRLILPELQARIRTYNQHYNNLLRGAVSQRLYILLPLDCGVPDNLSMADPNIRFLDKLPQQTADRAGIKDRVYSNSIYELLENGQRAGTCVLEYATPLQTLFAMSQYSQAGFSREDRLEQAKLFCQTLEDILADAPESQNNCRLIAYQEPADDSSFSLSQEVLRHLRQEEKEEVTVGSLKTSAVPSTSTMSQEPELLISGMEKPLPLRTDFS

[3] = rat, plasma, Intravenous (1 mg/kg)

Compound | Judgement [2] | Fold change (ratio relative to the control experiment), First experiment [2] | Fold change (ratio relative to the control experiment), Second experiment [2] | Fold change (ratio relative to the control experiment), Average value [2] | also measured
COc1cc2cc(C(F)(F)CCC(=O)O)sc2cc1OC [Compound S2] | effective (when the Fold change≥2, it is effective) | 23.95 | 25.94 | 24.95 | plasma exposure (AUC) of intravenous injection relative to that of 1a ([1]; intravenous injection, versus compound 1a): about 4.4 times; pharmacokinetic properties (T1/2, Cmax, AUC, MRT) compared with compound 1a (in words) ([1]; oral or intravenous, versus compound 1a): significantly superior; also recorded: significantly better; AUC [1, 3]: 7180 ng·h/mL; MRT [1, 3]: 51.2 min; clearance [1, 3]: 2.33 mL/min/kg; half-life [1, 3]: 40.1 min; AUC ([1]; rat, plasma, Oral (3 mg/kg)): 5820 ng·h/mL; Cmax ([1]; rat, plasma, Oral (3 mg/kg)): 6910 ng/mL; MRT ([1]; rat, plasma, Oral (3 mg/kg)): 69 min; half-life ([1]; rat, plasma, Oral (3 mg/kg)): 44.4 min
COc1cc2cc(C(F)(F)CCC(=O)OC(C)C)sc2cc1OC [Compound S3] | effective (when the Fold change≥2, it is effective) | 24.31 | 33.69 | 29.00 | –
COc1cc2cc(C(F)(F)CCC(=O)N(C)O)sc2cc1OC [Compound S6] | effective (when the Fold change≥2, it is effective) | 15.82 | 26.22 | 21.02 | –
COc1cc2cc(C(F)(F)CCC(=O)N(O)C(F)F)sc2cc1OC [Compound S7] | effective (when the Fold change≥2, it is effective) | 23.95 | 29.94 | 26.95 | –
COc1cc2cc(C(F)(F)CCC(=O)N(O)C(C)C)sc2cc1OC [Compound S10] | effective (when the Fold change≥2, it is effective) | 25.41 | 34.36 | 29.89 | –
COc1cc2cc(C(F)(F)CCC(=O)N(O)Cc3ccccc3)sc2cc1OC [Compound S11] | effective (when the Fold change≥2, it is effective) | 20.44 | 30.93 | 25.69 | –
COc1cc2cc(C(F)(F)CCC(=O)N(O)C(F)(F)c3ccccc3)sc2cc1OC [Compound S12] | effective (when the Fold change≥2, it is effective) | 22.38 | 31.54 | 26.96 | –
COc1cc2cc(C(F)(F)CCC(=O)N(O)C3CC3)sc2cc1OC [Compound S15] | effective (when the Fold change≥2, it is effective) | 26.23 | 35.12 | 30.68 | –
COc1cc2cc(C(F)(F)CCC(=O)NOc3ccccc3)sc2cc1OC [Compound S18] | effective (when the Fold change≥2, it is effective) | 17.62 | 28.34 | 22.98 | –
COc1cc2sc(C(F)(F)CCC(=O)O)cc2c(F)c1OC [Compound S19] | effective (when the Fold change≥2, it is effective) | 25.73 | 31.81 | 28.77 | –
CO/C1=C(\OC)C/C(F)=c2/cc(C(F)(F)CCC(=O)N(O)C(C)C)s/c2=C/C1 [Compound S21] | effective (when the Fold change≥2, it is effective) | 27.51 | 32.63 | 30.07 | –
COC1=C(OC)CC=c2cc(C(F)CCCC(=O)N(O)C(C)C)sc2=C1 (stereo not shown) [Compound S24] | effective (when the Fold change≥2, it is effective) | 15.53 | 24.54 | 20.04 | –
O=C(O)CCC(F)(F)c1cc2cc3c(cc2s1)OCO3 [Compound S26] | effective (when the Fold change≥2, it is effective) | 16.24 | 25.03 | 20.62 | –
COc1cc2sc(C(F)(F)CCC(=O)O)cc2cc1Br [Compound S28] | effective (when the Fold change≥2, it is effective) | 23.75 | 33.73 | 28.74 | –
C=Cc1cc2cc(C(F)(F)CCC(=O)O)sc2cc1OC [Compound S29] | effective (when the Fold change≥2, it is effective) | 25.26 | 34.05 | 29.66 | –
